What was measured:
[1] = biological target: T1, rGPR41 (Rattus norvegicus, UniProt B2GV46); assay: Yeast FUS1-lacZ/FUS1-HIS3 reporter assay, rGPR41 in S. cerevisiae MMY22 (Gpa1/Gαo), FDG substrate; format: cell-based; parameters: expressed in transfected cells; host or cells: S. cerevisiae MMY22 (A1, A5; Gpa1/Gαo integrated) or MMY11 + pRS314-Gpa1/Gαo (A4), transformed with p426GPD-rGPR41; details: for relative agonist activity at rGPR41 (in words): yeast MMY22, carboxylic acid series C1-C12, FIG. 8; for EC50: read-out: Agonism @ rGPR41 Approx. EC50
T1 sequence (B2GV46 1-319): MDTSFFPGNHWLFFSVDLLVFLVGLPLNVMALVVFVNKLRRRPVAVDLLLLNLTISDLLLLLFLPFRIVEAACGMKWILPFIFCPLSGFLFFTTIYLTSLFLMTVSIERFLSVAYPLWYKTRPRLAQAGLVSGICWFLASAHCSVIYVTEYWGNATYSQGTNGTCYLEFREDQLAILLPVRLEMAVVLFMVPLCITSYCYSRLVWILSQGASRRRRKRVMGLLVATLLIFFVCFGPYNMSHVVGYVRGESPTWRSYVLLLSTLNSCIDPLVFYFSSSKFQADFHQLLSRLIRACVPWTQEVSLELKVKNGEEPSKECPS
Method: A study was carried out of the function of rGPR41 following expression in S. cerevisiae MMY22, which is a derivative of S. cerevisiae MMY11 containing a copy of the gene encoding the Gpa1/Gαo transplant chimera described above (in which the 5 C-terminal amino acids of Gpa1 are replaced with the 5 C-terminal amino acids of Gαo) integrated into the genome. To do this, a cassette comprising the GPA1 promoter, nucleotide sequence encoding Gpa1/Gαo, and the terminator was sub-cloned from pRS314-Gpa1/Gαo into the yeast integrating plasmid pRS304 (Sikorski and Hieter, 1989). The resulting plasmid pRS304-Gpa1/Gαo was transformed into MMY11 and integrated into the trp1 locus creating MMY22.
The rGPR41 expression construct described above, p462GPD-rGPR41 was introduced into MMY22 by transformation as described above. Four separate transformants were tested for reporter gene activation in response to propionate. Assays for FUS1-lacZ and FUS1-HIS3 induction were performed as described, except the β-galactosidase (lacZ) substrate fluorescein di-β-D-galactopyranoside (FDG) was used in place of CPRG, and 3-aminotriazole concentration was 5 mM. Also, black-walled 96-well microtitre plates were used, and fluorescence resulting from degradation of FDG to fluorescein due to β-galactosidase was determined using a Spectrofluor microtitre plate reader (Tecan)(excitation wavelength: 485 nm; emmision wavelength: 535 nm).
A series of carboxylic acids and other compounds related to propionate were tested for the ability to activate rGPR41. Experiments were performed as described above, using yeast cells of strain MMY22 transformed with rGPR41 expression plasmid p462GPD-rGPR41, except that the agonist propionate was replaced with one of a series of other compounds, which are listed in table 2 below.
(§1) In vivo assays of reporter gene induction were carried out by suspending MMY11 cells transformed as described above to a density of 0.02 OD600/ml in 200 μl SC-glucose (2%) medium lacking tryptophan, uracil and histidine. This medium was supplemented with 10 mM 3-aminotriazole and the β-galactosidase (lacZ) substrate chlorophenolred-β-D-galactopyranoside (CPRG; Boehringer Mannheim) to a concentration of 0.1 mg/ml. Additionally the medium was supplemented with various concentrations of the agonist ligand, propionate (sodium propionate, pH 7.0). To visualise the yellow to red colour change reaction occurring on degradation of CPRG due to β-galactosidase, the medium was buffered to pH 7 with 0.1 M sodium phosphate. The assay was conducted in flat-bottomed sterile 96-well microtitre plates. Plates were incubated for 24 hours at 30° C. without agitation, and absorbance at 570 nm was determined using a Spectrofluor microtitre plate reader (Tecan).

[2] = biological target: T1, rGPR41; assay: Yeast reporter assay, rGPR41 in MMY22, CPRG substrate (3-hydroxybutyrate study); format: cell-based; parameters: expressed in transfected cells; host or cells: S. cerevisiae MMY22 (A1, A5; Gpa1/Gαo integrated) or MMY11 + pRS314-Gpa1/Gαo (A4), transformed with p426GPD-rGPR41; details: for agonism at rGPR41 (in words): FIG. 9
Method: A study was made of the agonism of rGPR41 by the naturally-occurring ketone body compound, 3-hydroxybutyrate. Experiments were performed as described above, using yeast cells of strain MMY22 transformed with rGPR41 expression plasmid p462GPD-rGPR41, except that the substrate CPRG was used. Also, the agonist propionate was replaced with 3-hydroxybutyrate (β-hydroxybutyrate), either as a racemic mix of both stereoisomers, or as purified enantiomers D-3-hydroxybutyrate, or L-3-hydroxybutyrate.
as §1

[3] = biological target: T2, human GPR41 (Homo sapiens, UniProt O14843); details: membranes of HEK293T cells, human GPR41 + Go1α; FIG. 2-4
T2 sequence (O14843 1-346): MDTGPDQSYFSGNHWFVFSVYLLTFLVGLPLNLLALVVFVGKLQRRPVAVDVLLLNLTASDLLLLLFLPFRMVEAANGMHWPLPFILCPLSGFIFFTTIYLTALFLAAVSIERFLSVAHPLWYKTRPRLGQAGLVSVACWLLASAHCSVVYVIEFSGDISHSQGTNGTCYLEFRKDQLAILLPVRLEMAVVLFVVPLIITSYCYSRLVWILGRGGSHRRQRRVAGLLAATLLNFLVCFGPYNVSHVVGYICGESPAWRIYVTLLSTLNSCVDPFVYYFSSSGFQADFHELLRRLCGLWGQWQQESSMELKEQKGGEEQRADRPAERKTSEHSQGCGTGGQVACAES
Method: HEK293T cells (HEK293 cells stably expressing the SV40 large T-antigen) were maintained in DMEM containing 10% (v/v) foetal calf serum and 2 mM glutamine. Cells were seeded in 60 mm culture dishes and grown to 60-80% confluency (18-24 h) prior to transfection with pCDNA3 containing the relevant DNA species using Lipofectamine reagent. For transfection, 3 μg of DNA was mixed with 10 μl of Lipofectamine in 0.2 ml of Opti-MEM (Life Technologies Inc.) and was incubated at room temperature for 30 min prior to the addition of 1.6 ml of Opti-MEM. Cells were exposed to the Lipofectamine/DNA mixture for 5 h and 2 ml of 20% (v/v) newborn calf serum in DMEM was then added. Cells were harvested 48-72 h after transfection.
Plasma membrane-containing P2 particulate fractions were prepared from cell pastes frozen at −80° C. after harvest. All procedures were carried out at 4° C. Cell pellets were resuspended in 1 ml of 10 mM Tris-HCl and 0.1 mM EDTA, pH 7.5 (buffer A) and by homogenisation for 20 s with a polytron homogeniser followed by passage (5 times) through a 25-guage needle. Cell lysates were centrifuged at 1,000 g for 10 min in a microcentrifuge to pellet the nuclei and unbroken cells and P2 particulate fractions were recovered by microcentrifugation at 16,000 g for 30 min. P2 particulate fractions were resuspended in buffer A and stored at −80° C. until required. Protein concentrations were determined using the bicinchoninic acid (BCA) procedure (4) using BSA as a standard.
Assays were performed in 96-well format using a method modified from Wieland and Jakobs, 1994. Membranes (10 μg per point) were diluted to 0.083 mg/ml in assay buffer (20 mM HEPES, 100 mM NaCl, 10 mM MgCl2, pH7.4) supplemented with saponin (10 mg/l) and pre-incubated with 40 μM GDP. […] Non-specific binding was determined by the inclusion of 0.6 mM GTP. […] Plates were centrifuged at 1500 g for 5 min and bound [^35S]GTPγS was determined by scintillation counting on a Wallac 1450 microbeta Trilux scintillation counter.

[4] = yeast MMY22 with p462GPD-rGPR41, FDG fluorescence, compounds as salt solutions buffered to pH 7.0

Compound: CCCCCC/C=C\CCCCCCCC(=O)O [Palmitoleic acid]
- Agonism @ rGPR41 Approx. EC50 (M) [1, 4]: Toxic/inactive

Compound: CCCCCCCCCCCCCCCCCC(=O)O [stearate]
- Agonism @ rGPR41 Approx. EC50 (M) [1, 4]: Inactive

Compound: CCCCCCCC/C=C\CCCCCCCC(=O)O [oleate]
- Agonism @ rGPR41 Approx. EC50 (M) [1, 4]: Inactive

Compound: O=CO [Formate]
- Agonism @ rGPR41 Approx. EC50 (M) ([1]; pH 7): Weak active

Compound: CS(=O)(=O)O [methylsulphonate]
- Agonism @ rGPR41 Approx. EC50 (M) [1, 4]: Inactive

Compound: CC(N)=O [acetamide]
- Agonism @ rGPR41 Approx. EC50 (M) [1, 4]: very weak active

Compound: O=C(O)CO [glycolate]
- Agonism @ rGPR41 Approx. EC50 (M) [1, 4]: weak active

Compound: CCCCCCCCCCCC(=O)O [Lauric C12 acid]
- relative agonist activity at rGPR41 (in words) [1]: inactive
- Agonism @ rGPR41 Approx. EC50 (M) [1, 4]: inactive/toxic

Compound: O=C(O)CC(O)(CC(=O)O)C(=O)O [Citrate]
- relative agonist activity at rGPR41 (in words) [1]: either inactive or had very weak activities
- Agonism @ rGPR41 Approx. EC50 (M) [1, 4]: Inactive

Compound: CCCCCCCCCCCCCCCC(=O)O [palmitate]
- Agonism @ rGPR41 Approx. EC50 (M) [1, 4]: Inactive

Compound: CCCCC(=O)O [Pentanoate (n-valerate)]
- relative agonist activity at rGPR41 (in words) [1]: similarly or slightly more active than propionate
- EC50 [1, 4]: ~3 µM

Compound: O=C1O[C@H]([C@@H](O)CO)C(O)=C1O [Ascorbate]
- Agonism @ rGPR41 Approx. EC50 (M) [1, 4]: Inactive

Compound: methyl-2-imidazoline
- Agonism @ rGPR41 Approx. EC50 (M) [1, 4]: Toxic/inactive

Compound: CC(C)=O [Acetone]
- Agonism @ rGPR41 Approx. EC50 (M) ([1]; pH 7): Inactive

Compound: O=C(O)CCC(=O)O [Succinate]
- relative agonist activity at rGPR41 (in words) [1]: either inactive or had very weak activities
- Agonism @ rGPR41 Approx. EC50 (M) [1, 4]: Inactive

Compound: CN[C@H](CC(=O)O)C(=O)O [NMDA]
- Agonism @ rGPR41 Approx. EC50 (M) [1, 4]: Inactive

Compound: O=C(O)CCCO [γ-hydroxybutyrate]
- EC50 [1, 4]: ~10000 µM

Compound: CCCCCCCCCCC(=O)O [Undecanoic C11 acid]
- relative agonist activity at rGPR41 (in words) [1]: inactive
- Agonism @ rGPR41 Approx. EC50 (M) [1, 4]: inactive/toxic

Compound: C=CCCC(=O)O [4-pentenoate]
- EC50 [1, 4]: ~30 µM

Compound: CC(O)C(=O)O (stereo not drawn) [lactate]
- Agonism @ rGPR41 Approx. EC50 (M) [1, 4]: Inactive

Compound: CC(C)(C)C(=O)O [pivalic acid]
- EC50 [1, 4]: ~500 µM

Compound: N[C@@H](CCC(=O)O)C(=O)O [Glutamate]
- Agonism @ rGPR41 Approx. EC50 (M) [1, 4]: Inactive

Compound: CCCCCCCC(=O)O [Caprylic C8 acid]
- Agonism @ rGPR41 Approx. EC50 (M) [1, 4]: weak active

Compound: C/C=C(\C)C(=O)O [tiglic acid]
- Agonism @ rGPR41 Approx. EC50 (M) [1, 4]: Inactive

Compound: O=C(O)/C=C\C(=O)O [maleate]
- Agonism @ rGPR41 Approx. EC50 (M) [1, 4]: Inactive

Compound: C[C@@H](O)CC(=O)O [D-b-Hydroxybutyrate]
- EC50 [1, 4]: ~10000 µM
- agonism at rGPR41 (in words) [2]: similarly active to the racemic mix DL-3-hydroxybutyrate

Compound: NCC(=O)O [Glycine]
- Agonism @ rGPR41 Approx. EC50 (M) [1, 4]: Inactive

Compound: O=C(O)/C=C/C(=O)O [Fumarate]
- relative agonist activity at rGPR41 (in words) [1]: either inactive or had very weak activities
- Agonism @ rGPR41 Approx. EC50 (M) [1, 4]: Inactive

Compound: NCCCC(=O)O [GABA]
- Agonism @ rGPR41 Approx. EC50 (M) [1, 4]: Inactive

Compound: O=C(O)c1ccccc1 [benzoate]
- Agonism @ rGPR41 Approx. EC50 (M) ([1]; pH 7): Toxic

Compound: O=C(O)CC(=O)O [malonate]
- Agonism @ rGPR41 Approx. EC50 (M) [1, 4]: Inactive

Compound: C[C@H](N)C(=O)O [Alanine]
- Agonism @ rGPR41 Approx. EC50 (M) [1, 4]: Inactive

Compound: O=C(O)CC(=O)C(=O)O [Oxaloacetate]
- Agonism @ rGPR41 Approx. EC50 (M) [1, 4]: Inactive

Compound: CCCCCCCCCC(=O)O [Decanoic C10 acid]
- relative agonist activity at rGPR41 (in words) [1]: inactive
- Agonism @ rGPR41 Approx. EC50 (M) [1, 4]: inactive/toxic

Compound: CC(=O)C(=O)O [pyruvate]
- Agonism @ rGPR41 Approx. EC50 (M) [1, 4]: Inactive

Compound: O=C(O)C(O)C(O)C(=O)O (stereo not drawn) [Tartrate]
- Agonism @ rGPR41 Approx. EC50 (M) [1, 4]: Inactive

Compound: O=CC=O [Glyoxal]
- Agonism @ rGPR41 Approx. EC50 (M) ([1]; pH 7): Toxic

Compound: O=C(O)c1cccnc1 [nicotinic acid]
- Agonism @ rGPR41 Approx. EC50 (M) ([1]; pH 7): Inactive

Compound: O=C(O)C(F)(F)F [Trifluoroacetate]
- Agonism @ rGPR41 Approx. EC50 (M) [1, 4]: weak active

Compound: CC(C)C(=O)O [Isobutyrate]
- EC50 [1, 4]: ~30 µM

Compound: CC(=O)CC(=O)O [Acetoacetate]
- Agonism @ rGPR41 Approx. EC50 (M) [1, 4]: weak active

Compound: O=C(O)C(=O)O [Oxalate]
- EC50 [1, 4]: ~3000 µM

Compound: C[C@H](O)CC(=O)O [L-b-Hydroxybutyrate]
- EC50 [1, 4]: ~10000 µM

Compound: CC(O)CC(=O)O (racemic) [DL-b-Hydroxybutyrate]
- EC50 [1, 4]: ~10000 µM
- stimulation of [35S]GTPγS binding [3]: elevate [^35S]GTPγS binding
- agonism at rGPR41 (in words) [2]: agonist at rGPR41 with a potency similar or slightly less than acetate
- lowest concentrations causing detectable activation of rGPR41 (threshold) ([2]; FIG. 9, listed as 3-hydroxybutyrate): approximately 1 mM

Compound: CCCCC/C=C\C/C=C\CCCCCCCC(=O)O [Linoleic acid]
- Agonism @ rGPR41 Approx. EC50 (M) [1, 4]: Toxic/Inactive

Compound: CCC(O)C(=O)O (stereo not drawn) [alpha-hydroxybutyrate]
- Agonism @ rGPR41 Approx. EC50 (M) [1, 4]: Inactive

Compound: CCCCCCC(=O)O [Heptanoic C7 acid]
- EC50 [1, 4]: ~100 µM

Compound: CCCCCCCCC(=O)O [Nonanoic C9 acid]
- relative agonist activity at rGPR41 (in words) [1]: inactive
- Agonism @ rGPR41 Approx. EC50 (M) [1, 4]: inactive/toxic

Compound: CCCCCC(=O)O [Caproic C6 acid]
- EC50 [1, 4]: ~30 µM

Compound: CCCC(=O)O [n-Butyrate]
- EC50 [1, 4]: ~50 µM

Compound: O=CC(=O)O [Glyoxylic acid]
- EC50 [1, 4]: ~50000 µM
